In US10714208B2, “Computer systems for treating diseases” (Biotempus Limited, priority 2009, dated 2020) one finds time to progression and remain progression-free data, which are given here for one molecule.

This experiment deals with metastatic melanoma. The experiment can be described thus: Pilot clinical study: temozolomide chemotherapy timed relative to the CRP oscillation cycle. It is filed as in vivo, human. As to the method:
A pilot clinical study was conducted on 12 patients with metastatic melanoma (median age 61; 4 female; 7 with M1c disease) at The Mayo Clinic, Rochester, Minn., USA headed by Dr Svetomir Markovic. Serial CRP measurements were taken every 2-3 days for 2 weeks. The CRP oscillation cycle was identified by analysis of the raw data without any computer aided modelling, and chemotherapy with temozolomide (200 mg/m2 for 5 days, every 28 days) was initiated. Patients were evaluated for clinical and immune response endpoints every 8 weeks until progression.

Turning to `Cn1nnc2c(C(N)=O)ncn2c1=O` [temozolomide], under “the other patients, treated post CRP-peak”, the time to progression is given as less than 5 months. Also, the remain progression-free (two patients with metastatic melanoma treated in the pre-peak section of the CRP cycle, temozolomide 200 mg/m2 for 5 days, every 28 days) was greater than 2 years.
